According to the CheMixHub viscosity set:

Assay: xn = mol fraction of the nth substance listed

OC1COCOC1 + OCC(O)CO
viscosity [mPa·s], 101 kPa
Conditions | x1 = 0.0998 | x1 = 0.2002 | x1 = 0.3 | x1 = 0.3996 | x1 = 0.5003 | x1 = 0.5984 | x1 = 0.7011 | x1 = 0.8002 | x1 = 0.9
298.15 K | 832.9 | 733.8 | 627.8 | 520 | 421.6 | 329.6 | 242.5 | 168.5 | 92.07
308.15 K | 378.7 | 330.3 | 278.4 | 227 | 181 | 134.8 | 99.8 | 67.79 | 40.63
318.15 K | 190 | 163.4 | 139 | 110.6 | 85.95 | 62.08 | 44.85 | 32.54 | 20.88

O=S1(=O)CCCC1 + OCCO
303.15 K, 101 kPa
Conditions | viscosity [mPa·s]
x1 = 0.0503 | 11.92
x1 = 0.0993 | 10.75
x1 = 0.2006 | 8.926
x1 = 0.2984 | 7.669
x1 = 0.393 | 6.857
x1 = 0.4553 | 6.555
x1 = 0.5015 | 6.443
x1 = 0.5484 | 6.443
x1 = 0.6038 | 6.548
x1 = 0.7048 | 7.013
x1 = 0.8065 | 7.683
x1 = 0.9034 | 8.532
x1 = 0.9426 | 9.018

OC1COCOC1 + OCCO
viscosity [mPa·s], 101 kPa
Conditions | x1 = 0.1002 | x1 = 0.2002 | x1 = 0.3 | x1 = 0.4 | x1 = 0.5004 | x1 = 0.5997 | x1 = 0.7 | x1 = 0.8001 | x1 = 0.8999
298.15 K | 16.97 | 16.11 | 14.94 | 13.85 | 12.88 | 12.74 | 12.81 | 12.79 | 12.89
308.15 K | 11.6 | 10.98 | 10.23 | 9.473 | 8.583 | 8.457 | 8.572 | 8.812 | 8.878
318.15 K | 8.193 | 7.647 | 7.214 | 6.665 | 6.111 | 5.995 | 5.915 | 6.167 | 6.474

O=S1(=O)CCCC1 + OCCOCCO
303.15 K, 101 kPa
Conditions | viscosity [mPa·s]
x1 = 0.0517 | 20.1
x1 = 0.0984 | 18.62
x1 = 0.206 | 15.85
x1 = 0.2958 | 13.99
x1 = 0.3988 | 12.28
x1 = 0.4469 | 11.69
x1 = 0.4997 | 11.11
x1 = 0.5346 | 10.81
x1 = 0.603 | 10.31
x1 = 0.7047 | 9.829
x1 = 0.7896 | 9.536
x1 = 0.8987 | 9.51
x1 = 0.9348 | 9.614

O=S1(=O)CCCC1 + OCCOCCOCCO
303.15 K, 101 kPa
Conditions | viscosity [mPa·s]
x1 = 0.0435 | 27.75
x1 = 0.0985 | 25.88
x1 = 0.2083 | 22.54
x1 = 0.2999 | 20.02
x1 = 0.3966 | 17.63
x1 = 0.4473 | 16.49
x1 = 0.4985 | 15.45
x1 = 0.5498 | 14.47
x1 = 0.5855 | 13.85
x1 = 0.6913 | 12.24
x1 = 0.8065 | 10.9
x1 = 0.8984 | 10.18
x1 = 0.9458 | 10.08

Cc1ccc(O)cc1 + Oc1ccccc1
298.15 K, 101 kPa
Conditions | viscosity [mPa·s]
x2 = 0.1598 | 13.27
x2 = 0.3191 | 12.18
x2 = 0.3851 | 11.75
x2 = 0.5218 | 10.99
x2 = 0.6385 | 10.42
x2 = 0.7587 | 9.835
x2 = 0.8783 | 9.463

O=S(=O)(Cl)Cl + [Cl-].[Cl-].[Cl-].[Cl-].[Sn+4]
298.15 K, 101 kPa
Conditions | viscosity [mPa·s]
x1 = 0.268 | 0.7739
x1 = 0.563 | 0.7396
x1 = 0.795 | 0.7144

CCC(C)O (centres undefined) + c1ccccc1
303 K, 101.3 kPa
Conditions | viscosity [mPa·s]
x2 = 0.1032 | 1.95
x2 = 0.2077 | 1.52
x2 = 0.3084 | 1.204
x2 = 0.4086 | 0.9692
x2 = 0.511 | 0.8012
x2 = 0.5989 | 0.6995
x2 = 0.7027 | 0.6211
x2 = 0.7981 | 0.5854
x2 = 0.8973 | 0.5709

Cc1cccc(C)c1 + c1ccccc1
viscosity [mPa·s], 101 kPa
Conditions | x1 = 0.0977 | x1 = 0.2098 | x1 = 0.2979 | x1 = 0.4028 | x1 = 0.5018 | x1 = 0.5981 | x1 = 0.7046 | x1 = 0.8007 | x1 = 0.898
303 K | 0.5478 | 0.5424 | 0.5393 | 0.5373 | 0.5342 | 0.5374 | 0.536 | 0.5395 | 0.5417
313 K | 0.4793 | 0.4781 | 0.4769 | 0.4767 | 0.4789 | 0.4796 | 0.4818 | 0.4843 | 0.4875
323 K | 0.4302 | 0.4308 | 0.4285 | 0.4291 | 0.4307 | 0.4342 | 0.4361 | 0.4397 | 0.443

O=S(=O)(Cl)Cl + c1ccccc1
298.15 K, 101 kPa
Conditions | viscosity [mPa·s]
x1 = 0.176 | 0.6172
x1 = 0.43 | 0.6463
x1 = 0.699 | 0.6673
x1 = 0.734 | 0.6691
x1 = 0.845 | 0.6757
